Where a name gives a salt, the structure may show the parent alone.
How the values were obtained:
Assay type in all cases: cell-based
AXL = AXL (Homo sapiens (Human), UniProt P30530); assay: AXL autophosphorylation ELISA in A-172 cells; settings: cellular, Gas6 stimulated
Procedure, shortened: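 Serum-starved (24 h) A-172 glioblastoma cells pretreated 1 h with compounds (8-point curve, 0.3% DMSO), then stimulated 15 min with 1 μg/mL Gas6. Lysate phospho-AXL measured by sandwich ELISA against a phospho-AXL standard; IC50 from 4-parameter logistic fit between DMSO and reference-inhibitor controls.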

Mer = Mer (Homo sapiens (Human), UniProt Q12866); assay: Mer autophosphorylation ELISA in transient transfected 293A cells; settings: cellular, MERTK transfected 293A cells
Mer, sequence (Q12866 21-999): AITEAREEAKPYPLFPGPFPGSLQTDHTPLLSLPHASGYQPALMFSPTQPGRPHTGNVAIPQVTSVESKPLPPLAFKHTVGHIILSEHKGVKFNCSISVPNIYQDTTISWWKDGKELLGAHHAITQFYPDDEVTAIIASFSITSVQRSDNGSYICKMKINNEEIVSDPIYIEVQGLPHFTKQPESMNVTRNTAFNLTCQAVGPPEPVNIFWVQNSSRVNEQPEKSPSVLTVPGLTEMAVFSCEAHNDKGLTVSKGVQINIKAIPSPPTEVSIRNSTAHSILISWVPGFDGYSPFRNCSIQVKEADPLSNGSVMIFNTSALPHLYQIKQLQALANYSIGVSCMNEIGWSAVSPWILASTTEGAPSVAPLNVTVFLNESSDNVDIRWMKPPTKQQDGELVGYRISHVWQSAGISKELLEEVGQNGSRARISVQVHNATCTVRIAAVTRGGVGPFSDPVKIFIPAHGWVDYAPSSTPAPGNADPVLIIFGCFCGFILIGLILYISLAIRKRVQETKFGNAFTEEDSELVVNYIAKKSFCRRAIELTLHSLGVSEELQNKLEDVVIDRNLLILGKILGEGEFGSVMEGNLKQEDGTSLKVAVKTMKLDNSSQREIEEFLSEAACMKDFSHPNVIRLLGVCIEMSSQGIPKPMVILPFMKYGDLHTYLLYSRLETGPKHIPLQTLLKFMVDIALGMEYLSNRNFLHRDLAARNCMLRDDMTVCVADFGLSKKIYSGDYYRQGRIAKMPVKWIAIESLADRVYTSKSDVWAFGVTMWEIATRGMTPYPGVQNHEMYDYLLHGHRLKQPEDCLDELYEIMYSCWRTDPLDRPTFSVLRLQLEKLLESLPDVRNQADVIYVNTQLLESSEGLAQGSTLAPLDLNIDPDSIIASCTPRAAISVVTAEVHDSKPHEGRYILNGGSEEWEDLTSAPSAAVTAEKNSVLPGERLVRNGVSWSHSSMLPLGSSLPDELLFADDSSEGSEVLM
Procedure: 293A cells (Thermo Fisher #R70507) were seeded at 1.5×10^6 cells/well onto 100 mm dish (Greiner #664169), in DMEM (Thermo Fisher #11995-040) containing 10% FBS (Thermo Fisher #26140-079), 1% MEM NEAA (Thermo Fisher #11140-050), 1% GlutaMax (Thermo Fisher #35050-061), and 1% Penicillin Streptomycin (Thermo Fisher #15140-122). 293A cells were incubated at 37° C., 5% CO2 for 24 h and then transfected with 6 μg MERTK DNA (Genecopoeia #EX-Z8208-M02) using TransIT LT1 transfection reagent (Mirus-Bio #MIR2305). After 24 h incubation, the transfected 293A cells were seeded at 1×10^5 cells/well onto 96-well plates (Corning #3904) in DMEM growth medium overnight. Test compounds were serially diluted to produce an 8-point dose curve in fresh serum-free medium to a final concentration of 0.3% DMSO (vehicle) and added to the cells and incubated for 1 h. Cells were then immediately lysed with 150 μL of cold 1× lysis buffer [20 mM Tris, 137 mM sodium chloride, 2 mM EDTA, 10% glycerol, 1% NP-40 alternative, 1 mM activated sodium orthovanadate, 1 mM PefaBloc SC (Sigma-Aldrich #11429868001), protease/phosphatase inhibitor tablet (Thermo Fisher #A32959)]. Lysates were clarified by centrifugation and 50 μL/well added into the human phospho-Mer DuoSet IC ELISA (R&D Systems #DYC2579-2). Assay was performed according to manufacturer's instructions and sample phospho-Mer concentrations were extrapolated using human phospho-Mer control (R&D Systems #841793) as a standard. Positive control wells (100% activity) contained DMSO-treated cell lysates. Negative control wells (0% activity) contained reference inhibitor-treated cell lysates. IC50 values were calculated by nonlinear regression analysis using a 4-parameter logistic curve fit in ActivityBase XE (IDBS).

Met = Met (Homo sapiens (Human), UniProt P08581); assay: Met autophosphorylation ELISA in PC-3 cells; settings: cellular, HGF stimulated, read-out: c-Met IC50
Met, sequence (P08581 25-1390): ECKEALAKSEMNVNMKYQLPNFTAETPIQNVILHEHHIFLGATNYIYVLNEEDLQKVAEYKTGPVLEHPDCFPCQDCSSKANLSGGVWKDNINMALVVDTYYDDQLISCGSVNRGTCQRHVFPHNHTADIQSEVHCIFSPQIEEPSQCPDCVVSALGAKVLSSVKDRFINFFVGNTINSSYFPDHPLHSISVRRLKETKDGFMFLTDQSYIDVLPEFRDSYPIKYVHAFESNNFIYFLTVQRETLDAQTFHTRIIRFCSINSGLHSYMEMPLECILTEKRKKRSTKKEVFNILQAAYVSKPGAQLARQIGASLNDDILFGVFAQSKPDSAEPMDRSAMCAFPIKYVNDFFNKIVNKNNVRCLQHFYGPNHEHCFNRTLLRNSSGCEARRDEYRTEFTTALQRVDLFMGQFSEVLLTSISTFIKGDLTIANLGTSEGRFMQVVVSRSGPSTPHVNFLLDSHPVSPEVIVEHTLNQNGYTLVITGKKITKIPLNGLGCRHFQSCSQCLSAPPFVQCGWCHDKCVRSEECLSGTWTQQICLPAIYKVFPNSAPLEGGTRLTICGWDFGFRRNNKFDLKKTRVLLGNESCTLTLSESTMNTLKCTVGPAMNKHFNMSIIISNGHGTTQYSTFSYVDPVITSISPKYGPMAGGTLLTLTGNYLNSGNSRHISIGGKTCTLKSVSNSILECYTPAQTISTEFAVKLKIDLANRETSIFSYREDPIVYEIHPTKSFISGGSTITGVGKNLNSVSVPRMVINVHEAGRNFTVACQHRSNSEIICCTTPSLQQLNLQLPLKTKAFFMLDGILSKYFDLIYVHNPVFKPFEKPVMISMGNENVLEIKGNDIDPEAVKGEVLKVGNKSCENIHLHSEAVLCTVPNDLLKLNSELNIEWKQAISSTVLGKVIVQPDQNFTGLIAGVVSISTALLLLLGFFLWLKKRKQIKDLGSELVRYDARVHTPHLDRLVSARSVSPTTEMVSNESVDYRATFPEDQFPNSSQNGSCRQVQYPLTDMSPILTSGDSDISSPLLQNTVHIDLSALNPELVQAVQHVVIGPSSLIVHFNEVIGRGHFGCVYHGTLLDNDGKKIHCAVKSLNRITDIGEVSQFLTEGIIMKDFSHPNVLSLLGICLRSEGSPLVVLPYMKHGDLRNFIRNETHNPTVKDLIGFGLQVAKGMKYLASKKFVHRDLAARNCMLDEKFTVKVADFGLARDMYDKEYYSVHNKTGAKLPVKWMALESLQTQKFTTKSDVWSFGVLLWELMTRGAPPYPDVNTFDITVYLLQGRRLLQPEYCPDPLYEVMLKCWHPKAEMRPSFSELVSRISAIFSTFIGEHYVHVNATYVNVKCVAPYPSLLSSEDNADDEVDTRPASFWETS
Procedure, shortened: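 Phospho-Met (panTyr) sandwich ELISA on lysates of PC-3 cells given 100 ng/mL HGF for 10 min after 1 h compound exposure (8-point curve, 0.3% DMSO) following 3 h serum starvation. Normalised to HGF-stimulated DMSO and reference-inhibitor wells; 4-parameter logistic IC50.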

KDR = KDR (Homo sapiens (Human), UniProt P35968); assay: KDR autophosphorylation ELISA in HUVEC cells; settings: cellular, VEGF165 stimulated
KDR, sequence (P35968 20-1356): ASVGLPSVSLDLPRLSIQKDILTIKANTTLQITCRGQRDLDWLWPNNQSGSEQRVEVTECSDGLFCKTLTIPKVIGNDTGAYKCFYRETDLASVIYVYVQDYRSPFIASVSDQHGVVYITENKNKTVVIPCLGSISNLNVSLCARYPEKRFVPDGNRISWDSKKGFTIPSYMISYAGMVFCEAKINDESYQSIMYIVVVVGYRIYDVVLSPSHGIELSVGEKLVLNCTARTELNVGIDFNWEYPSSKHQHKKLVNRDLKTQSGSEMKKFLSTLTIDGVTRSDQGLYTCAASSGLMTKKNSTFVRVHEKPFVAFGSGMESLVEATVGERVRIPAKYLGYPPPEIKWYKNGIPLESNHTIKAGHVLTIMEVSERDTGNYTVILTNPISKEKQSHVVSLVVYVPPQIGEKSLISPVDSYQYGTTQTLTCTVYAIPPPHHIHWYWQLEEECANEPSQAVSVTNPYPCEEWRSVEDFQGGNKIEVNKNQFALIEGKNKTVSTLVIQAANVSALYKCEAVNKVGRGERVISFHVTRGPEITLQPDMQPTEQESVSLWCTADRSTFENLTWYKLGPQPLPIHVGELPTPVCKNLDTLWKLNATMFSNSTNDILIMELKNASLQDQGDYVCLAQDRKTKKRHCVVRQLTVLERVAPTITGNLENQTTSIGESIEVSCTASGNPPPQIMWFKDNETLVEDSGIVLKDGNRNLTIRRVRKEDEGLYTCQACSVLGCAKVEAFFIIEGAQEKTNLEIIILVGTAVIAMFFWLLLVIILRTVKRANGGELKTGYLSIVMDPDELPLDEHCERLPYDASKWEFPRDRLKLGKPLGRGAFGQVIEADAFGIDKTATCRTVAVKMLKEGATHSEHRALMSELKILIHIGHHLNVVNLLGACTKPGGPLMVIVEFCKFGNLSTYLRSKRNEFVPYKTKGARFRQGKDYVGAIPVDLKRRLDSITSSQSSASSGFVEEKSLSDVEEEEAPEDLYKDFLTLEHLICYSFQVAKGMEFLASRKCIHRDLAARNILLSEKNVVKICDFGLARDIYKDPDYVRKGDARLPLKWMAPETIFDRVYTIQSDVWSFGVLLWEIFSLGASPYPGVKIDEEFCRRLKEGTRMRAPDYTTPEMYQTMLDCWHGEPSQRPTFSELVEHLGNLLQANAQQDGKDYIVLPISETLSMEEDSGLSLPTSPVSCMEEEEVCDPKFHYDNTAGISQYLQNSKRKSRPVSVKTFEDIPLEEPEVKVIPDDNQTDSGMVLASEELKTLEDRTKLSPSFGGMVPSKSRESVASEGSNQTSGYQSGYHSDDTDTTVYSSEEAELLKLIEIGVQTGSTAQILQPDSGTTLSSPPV
Procedure, shortened: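 Inhibition of VEGF165-induced KDR phosphorylation was determined in serum-starved HUVEC after 1 h compound pretreatment and 5 min stimulation with 100 ng/mL VEGF165. Lysate phospho-KDR was measured by ELISA; IC50 values came from a 4-parameter logistic fit of 8-point curves.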

AXL, sequence (P30530 26-894): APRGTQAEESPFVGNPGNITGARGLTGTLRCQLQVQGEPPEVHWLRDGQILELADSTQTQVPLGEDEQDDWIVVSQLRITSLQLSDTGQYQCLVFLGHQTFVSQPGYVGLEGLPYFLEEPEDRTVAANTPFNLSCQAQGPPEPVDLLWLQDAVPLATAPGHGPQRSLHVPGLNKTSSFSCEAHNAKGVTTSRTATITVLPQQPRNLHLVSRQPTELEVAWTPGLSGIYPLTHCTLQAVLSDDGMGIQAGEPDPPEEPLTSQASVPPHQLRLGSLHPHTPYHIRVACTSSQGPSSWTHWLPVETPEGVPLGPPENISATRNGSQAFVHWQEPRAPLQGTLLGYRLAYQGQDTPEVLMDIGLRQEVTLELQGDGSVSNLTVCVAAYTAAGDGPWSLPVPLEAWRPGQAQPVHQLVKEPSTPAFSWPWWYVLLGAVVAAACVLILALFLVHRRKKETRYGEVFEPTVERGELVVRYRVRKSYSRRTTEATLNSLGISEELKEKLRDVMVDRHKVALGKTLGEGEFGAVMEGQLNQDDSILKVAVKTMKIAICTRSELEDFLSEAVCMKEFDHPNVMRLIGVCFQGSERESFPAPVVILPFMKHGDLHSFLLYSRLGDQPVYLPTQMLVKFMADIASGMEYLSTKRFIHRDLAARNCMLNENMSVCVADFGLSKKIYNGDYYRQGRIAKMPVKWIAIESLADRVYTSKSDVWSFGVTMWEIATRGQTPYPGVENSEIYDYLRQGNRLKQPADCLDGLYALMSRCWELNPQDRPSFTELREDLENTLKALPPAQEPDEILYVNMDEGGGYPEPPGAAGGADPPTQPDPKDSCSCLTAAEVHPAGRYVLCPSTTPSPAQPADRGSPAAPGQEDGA

Row | Structure (SMILES) | IC50 (AXL) [µM] | IC50 (Mer) [µM] | IC50 (Met) [µM] | IC50 (KDR) [µM]
1 | Cc1cc2c(Oc3cc(F)c(NC(=O)C4(C(=O)Nc5ccc(F)cc5)CC4)cc3F)ccnc2cc1C(N)=O [Compound 294, 1-N′-[4-(7-Carbamoyl-6-methylquinolin-4-yl)oxy-2,5-difluorophenyl]-1-N-(4-fluorophenyl)cyclopropane-1,1-dicarboxamide] | ≤ 0.01 | ≤ 0.01 | ≤ 0.01 | 0.01 to 0.1
2 | NC(=O)c1cc2c(Oc3ccc(NC(=O)C4(C(=O)Nc5ccc(F)cc5)CC4)cc3)ccnc2cc1NCCCN1CCOCC1 [Compound 71, 1-N-[4-[6-Carbamoyl-7-(3-morpholin-4-ylpropylamino)quinolin-4-yl]oxyphenyl]-1-N′-(4-fluorophenyl)cyclopropane-1,1-dicarboxamide] | 0.01 to 0.1 | 0.01 to 0.1 | 0.01 to 0.1 | 0.01 to 0.1
3 | CNC(=O)c1cc2c(Oc3ccc(NC(=O)C4(C(=O)Nc5ccc(F)cc5OC)CC4)cc3F)ccnc2cc1OC [Compound 268, 1-N-[3-Fluoro-4-[7-methoxy-6-(methylcarbamoyl)quinolin-4-yl]oxyphenyl]-1-N′-(4-fluoro-2-methoxyphenyl)cyclopropane-1,1-dicarboxamide] | ≤ 0.01 | 0.01 to 0.1 | 0.01 to 0.1 | ≤ 0.01
4 | COC(=O)Nc1cc2c(Oc3ccc(NC(=O)C4(C(=O)Nc5ccc(F)cc5)CC4)cc3)ccnc2cc1OC [Compound 280, Methyl N-[4-[4-[[1-[(4-fluorophenyl)carbamoyl]cyclopropane-carbonyl]amino]phenoxy]-7-methoxyquinolin-6-yl]carbamate] | ≤ 0.01 | ≤ 0.01 | 0.01 to 0.1 | ≤ 0.01
5 | CCc1noc(-c2cc3c(Oc4ccc(NC(=O)C5(C(=O)Nc6ccc(F)cc6)CC5)cc4)ccnc3cc2OC)n1 [Compound 283, 1-N-[4-[6-(3-Ethyl-1,2,4-oxadiazol-5-yl)-7-methoxyquinolin-4-yl]oxyphenyl]-1-N′-(4-fluorophenyl)cyclopropane-1,1-dicarboxamide Hydrochloride] | 0.01 to 0.1 | 0.01 to 0.1 | 0.01 to 0.1 | 0.01 to 0.1
6 | CONC(=O)c1ccc2c(Oc3ccc(NC(=O)C4(C(=O)Nc5ccc(F)cc5)CC4)cc3)ccnc2c1 [Compound 213, 1-N′-(4-Fluorophenyl)-1-N-[4-[7-(methoxycarbamoyl)quinolin-4-yl]oxyphenyl]cyclopropane-1,1-dicarboxamide] | 0.01 to 0.1 | 0.01 to 0.1 | 0.01 to 0.1 | 0.1 to 0.3
7 | O=C(NOCCO)c1ccc2c(Oc3cc(F)c(NC(=O)C4(C(=O)Nc5ccc(F)cc5)CC4)cc3F)ccnc2c1 [Compound 302, 1-N′-[2,5-Difluoro-4-[7-(2-hydroxyethoxycarbamoyl)quinolin-4-yl]oxyphenyl]-1-N-(4-fluorophenyl)cyclopropane-1,1-dicarboxamide] | 0.01 to 0.1 | 0.1 to 0.3 | ≤ 0.01 | 0.1 to 0.3
8 | CNC(=O)c1cc2nccc(Oc3cc(F)c(NC(=O)C4(C(=O)Nc5ccc(F)cc5)CC4)cc3F)c2cc1C [Compound 290, 1-N′-[2,5-Difluoro-4-[6-methyl-7-(methylcarbamoyl)quinolin-4-yl]oxyphenyl]-1-N-(4-fluorophenyl)cyclopropane-1,1-dicarboxamide] | ≤ 0.01 | ≤ 0.01 | ≤ 0.01 | 0.1 to 0.3
9 | CNC(=O)c1cc2c(Oc3ccc(NC(=O)C4(C(=O)Nc5ccc(F)cc5OC(C)C)CC4)cc3F)ccnc2cc1OC [Compound 269, 1-N-[3-Fluoro-4-[7-methoxy-6-(methylcarbamoyl)quinolin-4-yl]oxyphenyl]-1-N′-(4-fluoro-2-propan-2-yloxyphenyl)cyclopropane-1,1-dicarboxamide] | 0.01 to 0.1 | 0.01 to 0.1 | 0.1 to 0.3 | 0.01 to 0.1
10 | COc1cc2nccc(Oc3ccc(NC(=O)C4(C(=O)Nc5ccc(F)cc5)CC4)cc3)c2cc1C(=O)NOCC(O)CO (single isomer, unassigned) [Compound 31, 1-N-[4-[6-(2,3-dihydroxypropoxycarbamoyl)-7-methoxyquinolin-4-yl]oxyphenyl]-1-N′-(4-fluorophenyl)cyclopropane-1,1-dicarboxamide] | 0.01 to 0.1 | > 0.3 | 0.1 to 0.3 | 0.01 to 0.1
11 | O=C(NOCCO)c1ccc2c(Oc3ccc(NC(=O)C4(C(=O)Nc5ccc(F)cc5)CC4)cc3F)ccnc2c1 [Compound 301, 1-N′-[3-Fluoro-4-[7-(2-hydroxyethoxycarbamoyl)quinolin-4-yl]oxyphenyl]-1-N-(4-fluorophenyl)cyclopropane-1,1-dicarboxamide] | 0.01 to 0.1 | 0.01 to 0.1 | 0.01 to 0.1 | 0.01 to 0.1
12 | CCNC(=O)c1ccc2c(Oc3ccc(NC(=O)C4(C(=O)Nc5ccc(F)cc5)CC4)cc3)ccnc2c1 [Compound 214, 1-N-[4-[7-(Ethylcarbamoyl)quinolin-4-yl]oxyphenyl]-1-N′-(4-fluorophenyl)cyclopropane-1,1-dicarboxamide] | 0.01 to 0.1 | 0.01 to 0.1 | 0.01 to 0.1 | 0.01 to 0.1
13 | CNC(=O)c1cc2c(Oc3ccc(NC(=O)C4(C(=O)Nc5ccc(F)cc5)CC4)cc3)ccnc2cc1OCCO [Compound 110, 1-N′-(4-Fluorophenyl)-1-N-[4-[7-(2-hydroxyethoxy)-6-(methylcarbamoyl)quinolin-4-yl]oxyphenyl]cyclopropane-1,1-dicarboxamide] | ≤ 0.01 | 0.01 to 0.1 | ≤ 0.01 | ≤ 0.01
14 | Cc1cc2c(Oc3ccc(NC(=O)C4(C(=O)Nc5ccc(F)cc5)CC4)cc3F)ccnc2cc1C(N)=O [Compound 293, 1-N′-[4-(7-Carbamoyl-6-methylquinolin-4-yl)oxy-3-fluorophenyl]-1-N-(4-fluorophenyl)cyclopropane-1,1-dicarboxamide] | 0.01 to 0.1 | 0.01 to 0.1 | 0.01 to 0.1 | 0.01 to 0.1
15 | CNC(=O)c1cc2c(Oc3ccc(NC(=O)C4(C(=O)Nc5ccc(F)cc5Cl)CC4)cc3F)ccnc2cc1OC [Compound 264, 1-N′-(2-Chloro-4-fluorophenyl)-1-N-[3-fluoro-4-[7-methoxy-6-(methylcarbamoyl)quinolin-4-yl]oxyphenyl]cyclopropane-1,1-dicarboxamide] | 0.01 to 0.1 | 0.01 to 0.1 | 0.01 to 0.1 | 0.01 to 0.1
16 | CNS(=O)(=O)c1cc2c(Oc3ccc(NC(=O)C4(C(=O)Nc5ccc(F)cc5)CC4)cc3)ccnc2cc1OC [Compound 207, 1-N′-(4-Fluorophenyl)-1-N-[4-[7-methoxy-6-(methylsulfamoyl)quinolin-4-yl]oxyphenyl]cyclopropane-1,1-dicarboxamide] | 0.01 to 0.1 | 0.01 to 0.1 | 0.01 to 0.1 | 0.01 to 0.1
17 | COc1cc2nccc(Oc3ccc(NC(=O)C4(C(=O)Nc5ccc(F)cc5)CC4)cc3)c2cc1P(C)(C)=O [Compound 51, 1-N-[4-(6-Dimethylphosphoryl-7-methoxyquinolin-4-yl)oxyphenyl]-1-N′-(4-fluorophenyl)cyclopropane-1,1-dicarboxamide] | 0.01 to 0.1 | 0.1 to 0.3 | 0.01 to 0.1 | 0.1 to 0.3
18 | CNC(=O)c1cc2nccc(Oc3cc(Cl)c(NC(=O)C4(C(=O)Nc5ccc(F)cc5)CC4)cc3F)c2cc1C [Compound 291, 1-N′-[2-Chloro-5-fluoro-4-[6-methyl-7-(methylcarbamoyl)quinolin-4-yl]oxyphenyl]-1-N-(4-fluorophenyl)cyclopropane-1,1-dicarboxamide] | 0.01 to 0.1 | 0.01 to 0.1 | 0.01 to 0.1 | > 0.3
19 | CCNS(=O)(=O)c1cc2c(Oc3ccc(NC(=O)C4(C(=O)Nc5ccc(F)cc5)CC4)cc3)ccnc2cc1OC [Compound 208, 1-N-[4-[6-(Ethylsulfamoyl)-7-methoxyquinolin-4-yl]oxyphenyl]-1-N′-(4-fluorophenyl)cyclopropane-1,1-dicarboxamide] | 0.01 to 0.1 | 0.01 to 0.1 | 0.01 to 0.1 | 0.01 to 0.1
